Several values for one entry are separate records, joined by “and”; a condition that tells them apart may be missing. Identical values can stand only once.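 48-hour exposure; five concentrations; linearly interpolated endpoints. GI50 marks 50% less growth. At the TGI there is no net growth.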
How the values were obtained:
Assay in all cases: inhibition of tumour cell growth, NCI panel, 48 h
A498 renal = system: A498 renal
ACHN renal = system: ACHN renal
COLO 205 colon = system: COLO 205 colon
HCC-2998 colon = system: HCC-2998 colon
NCI-H460 lung = system: NCI-H460 lung
NCI-H522 lung = system: NCI-H522 lung
SK-MEL-28 melanoma = system: SK-MEL-28 melanoma
SR leukemia = system: SR leukemia

| SMILES | GI50 (A498 renal) | TGI (A498 renal) | GI50 (ACHN renal) | TGI (ACHN renal) | GI50 (COLO 205 colon) | TGI (COLO 205 colon) | GI50 (HCC-2998 colon) | TGI (HCC-2998 colon) | GI50 (NCI-H460 lung) | TGI (NCI-H460 lung) | GI50 (NCI-H522 lung) | TGI (NCI-H522 lung) | GI50 (SK-MEL-28 melanoma) | TGI (SK-MEL-28 melanoma) | TGI (SR leukemia) | GI50 (SR leukemia) |
| --- | --- | --- | --- | --- | --- | --- | --- | --- | --- | --- | --- | --- | --- | --- | --- | --- |
| CN(c1ccc(NC(=O)Nc2ccc(OC(F)(F)F)cc2)cc1)c1ccnc(Nc2cccc(S(N)(=O)=O)c2)n1 | 1.15 µM | 3.37 µM | 5.42 µM | 15.5 µM | 0.317 µM | 3.5 µM | 5.11 µM | 9.27 µM | 0.428 µM | 4.51 µM | 3.41 µM | 7.36 µM | 3.42 µM | 7 µM | – | – |
| NC(=O)c1oc([N+](=O)[O-])c(-c2ccccc2)c1-c1ccccc1 | – | – | – | 82 µM | – | 42.1 µM | – | – | – | > 100 µM | – | 31.5 µM | – | > 100 µM | 34.2 µM | – |
| COc1ccc(-c2cc(-c3ccccc3)nc(N3CCN(CCNc4ccnc5cc(Cl)ccc45)CC3)n2)cc1 | 8.15 µM | 20.7 µM | 3.8 µM | 14.4 µM | 1.17 µM | 2.66 µM | 1.46 µM | 3.02 µM | 1.92 µM | 3.78 µM | – | – | 1.52 µM | 2.94 µM | > 100 µM | 0.31 µM |
| CC1CC2C(=O)N(c3ccccc3)C(=O)C2c2c1c1ccccc1n2Cc1ccccc1 (stereo unspecified) | – | – | – | > 100 µM | – | > 100 µM | – | – | – | > 100 µM | – | 92.3 µM | – | – | > 100 µM | – |
| CCCCCCC#Cc1ccccc1C#CCO | – | – | 18.5 µM | 39 µM | 17.2 µM | 34 µM | 23.7 µM | 42.6 µM | 32.8 µM | > 100 µM | 18.7 µM | 38.6 µM | 18 µM | 45.3 µM | > 100 µM | 39.9 µM |
| CC(C)C[C@H](NC(=O)[C@H]1O[C@@H]1C(=O)O)C(=O)NCCc1ccc(O)cc1 | – | – | > 100 µM | > 100 µM | > 100 µM | > 100 µM | > 100 µM | > 100 µM | > 100 µM | > 100 µM | > 100 µM | > 100 µM | > 100 µM | > 100 µM | – | – |
| Cn1ccc2c(c1=O)C(=O)c1nccc3c1c-2nc1ccccc13 | 12.5 µM | 25.9 µM | 1.59 µM | 2.99 µM | 1.57 µM | 2.96 µM | 1.72 µM | 3.15 µM | 1.36 µM | 3.09 µM | – | – | 1.61 µM | 3.05 µM | – | – |
| CC(C)[C@@]12C[C@@H](OC(=O)COC(=O)/C=C/c3ccccc3)[C@@](C)(O1)[C@@H]1CC[C@@H](C)[C@H]1[C@@H]2OC(=O)/C=C/c1ccccc1 | < 0.0441 µM | 0.401 µM | 0.0591 µM | 0.443 µM | > 100 µM | > 100 µM | > 100 µM | > 100 µM | > 100 µM | > 100 µM | > 100 µM | > 100 µM | > 100 µM | > 100 µM | – | – |
| CC(=O)NCCSC(=O)c1ccccc1 | – | – | – | 0.0971 µM | – | 0.516 µM | – | – | – | 6.44 µM | – | – | – | 1.14 µM | 0.66 µM | – |
| NC(=NC1CCCCCCC1)c1ccc(N2CCN(c3ccc(C(N)=NC4CCCCCCC4)cc3)CC2)cc1 | – | – | 22.7 µM | > 100 µM | 13.3 µM | 39.3 µM | 14.4 µM | 48 µM | 11.9 µM | > 100 µM | 12.8 µM | 52.2 µM | 6.75 µM | 22.8 µM | > 100 µM | 26.6 µM |
| CCN(CCNc1ccc(C)c2sc3cc(Cl)ccc3c(=O)c12)CC(C)O (stereo unspecified) | 1.49 µM | 2.87 µM | 1.85 µM | 3.48 µM | 1.72 µM | 3.24 µM | 2.18 µM | 3.62 µM | 1.78 µM | 3.34 µM | – | – | 1.91 µM | 3.4 µM | – | – |
| N#Cc1c(N)nc(N2CCOCC2)c(C#N)c1-c1ccc(Cl)cc1 | 8.11 µM | 36.3 µM | – | – | 48.5 µM | > 100 µM | 21.7 µM | 99.2 µM | 33.2 µM | > 100 µM | – | – | 70.9 µM | > 100 µM | – | – |
| N#Cc1cccc(C(=O)Nc2cccc(NC(=O)c3cccc(C#N)c3)c2)c1 | – | – | > 100 µM | > 100 µM | > 100 µM | > 100 µM | > 100 µM | > 100 µM | 42.8 µM | > 100 µM | > 100 µM | > 100 µM | > 100 µM | > 100 µM | – | – |
| Cc1nn(-c2ccccc2)c2c1CC(=O)Nc1ccccc1-2 | 0.027 µM | – | 0.84 µM | > 100 µM | 0.318 µM | 4.84 µM and 1.99 µM | 0.624 µM and 0.222 µM | 7.54 µM and 2.49 µM | 0.381 µM | > 100 µM | 0.17 µM | 3.75 µM and 0.593 µM | 0.357 µM | > 100 µM | – | – |
| Cc1ccc(NC(=O)c2cc3ccccc3c(N=Nc3ccccc3O)c2O)c(C)c1 | – | – | – | 16.4 µM | – | 11.5 µM | – | 18.7 µM | – | 12.1 µM | – | 2.61 µM | – | 79.1 µM | 3.53 µM | – |
| O=C1Nc2ccccc2C1Cc1ccc([N+](=O)[O-])cc1 (stereo unspecified) | – | – | – | > 100 µM | – | > 100 µM | – | > 100 µM | – | > 100 µM | – | > 100 µM | – | > 100 µM | > 100 µM | – |

Reference: PubChem BioAssay (NCI)
